Laboratory results published in PubChem BioAssay AID652101 (NMMLSC, 2013).
Activity calls are given as the source filed them.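 Rule for the calls: active = at least 15% inhibition at the top concentration together with an EC50 under 10 microM; inactive = the rest.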

system: not listed separately; assay: potency against LAMP-1 externalization in TALL-104 – TALL-104 cells, flow cytometry, CherryPick01, dose response (AID 652101); settings: TALL-104 lytic granule exocytosis, LAMP-1 flow cytometry; at 15.1 µM (top of the series);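 for inhibition: 0% = stimulated DMSO control and 100% = unstimulated control wells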

SMILES	inhibition
CCOC(=O)[C@]12Cc3cc(Cl)ccc3[C@H]1N(C1CCCCC1)C(=O)c1cc(OC)ccc12	102% (inactive)

same assay, conditions: TALL-104 lytic granule exocytosis, LAMP-1 flow cytometry; at 15.1 µM (top of the series); stimulated with 1 µM thapsigargin, 50 nM PMA

SMILES	inhibition
CCOc1ccccc1CNC(=O)C1CCN(c2nnc(C)c3c(C)n(-c4ccc(C)cc4)nc23)CC1	59.4% (inactive)
O=C1OC(c2ccccc2)(c2cc(Br)ccc2O)c2ccccc21 (centres undefined)	109% (inactive)
O=c1c2cc(F)ccc2sn1-c1ccccc1Cl	95.2% (inactive)
CC(C)(c1ccccc1)c1ccc(OCC(O)CNC2CCN(Cc3ccccc3)CC2)cc1 (centres undefined)	31.5% (inactive)
CCOc1ccc(-c2cc(C(=O)NCCCn3ccnc3)c3cc(Br)ccc3n2)cc1	25.6% (inactive)
CN(C)CCC(=O)c1ccc2c(c1)OCO2	103% (inactive)
Nc1c(C(=O)NCc2ccc(F)cc2)c2nc3ccccc3nc2n1CCCN1CCOCC1	72.5% (inactive)
Cc1cc(F)ccc1S(=O)(=O)Nc1ccccc1C(=O)Nc1ccccc1-c1nc2ccccc2[nH]1	106% (inactive)
CN1CCN(c2ccc(NC(=O)c3ccc(-c4ccc(Cl)cc4)o3)cc2)CC1	97.9% (inactive)
COc1ccc(-c2cc(NC=O)c3ncc(-c4cccc(OC)c4)n3c2)cc1	101% (inactive)
COc1cccc2c1C(=O)c1ccc3ccccc3c1C2=O	18.2% (inactive)
O=C(Nc1nc2ccccc2n1CCN1CCOCC1)c1ccc(COc2ccccc2Br)o1	102% (inactive)
N#Cc1ccc(NC(=O)Nc2ccc(Oc3ccc(NC(=O)Nc4ccc(C#N)cc4)cc3)cc2)cc1	33.8% (inactive)

system: TALL-104 lytic granule exocytosis, LAMP-1 flow cytometry; assay: as above; settings: stimulated with 1 µM thapsigargin, 50 nM PMA

SMILES	EC50 [µM]
Cc1ccc(S(=O)(=O)n2ccc3c(OCCOCCNCc4ccc(F)cc4)cccc32)cc1	4.41
CCN(CC)CCCNc1ccc(-c2nnc(-c3ccc(OCC(C)C)cc3)o2)cn1	2.35
CC1=NOC(=O)/C1=C/c1ccc(-c2ccc(Cl)cc2)o1	1.68
CCc1ccc(/C=C2/Sc3ccccc3N(CC(=O)NCCCN3CCOCC3)C2=O)cc1	5.17
O=S(=O)(c1ccccc1)c1nnn2c1nc(NC1CCN(Cc3ccccc3)CC1)c1cc(Cl)ccc12	4.22
O=C(Cn1sc2ccccc2c1=O)Nc1ccc(F)cc1	5.2
Fc1ccc(/C=C\c2nccc3c2[nH]c2ccccc23)cc1	1.66
COC(=O)c1c(NC(=O)c2nc3ccccc3s2)sc2c1CC(C)(C)NC2(C)C	6.27
COc1cccc(NC(=O)Nc2nc(-c3ccc(OC)c(OC)c3)cs2)c1	4.83
COc1cccc(-c2cnc3c(NC(C)=O)cc(-c4ccccc4OC)cn23)c1	5.23
N#Cc1c(Nc2ccccc2Cl)s[nH]c1=O	3.82
COc1ccccc1CNc1nc(NCc2ccc(C(C)C)cc2)c2sccc2n1	5.34
O=C1C=CC(=O)N1N(c1ccccc1)c1ccccc1	5.02
O=c1c2ccccc2sn1-c1ccccc1F	4.78
CCOc1ccc2nc(C)cc(Nc3cccc([N+](=O)[O-])c3)c2c1	6.14
CCCS(=O)(=O)Nc1ccc(Nc2c3ccccc3nc3ccccc23)c(OC)c1	3.38
COc1ccccc1CNc1nc(NCc2ccc3occc3c2)c2sccc2n1	4.23
Cc1cc(C)c2nc(C)cc(N/N=C/c3ccc(O)cc3)c2c1	4.47
O=C(CN1C(=O)/C(=C\c2cccc(Br)c2)Oc2ccccc21)NCCCN1CCOCC1	4.61
Cc1ccc(Nc2nc(NCc3ccco3)c3ccccc3n2)cc1	4.7
O=C1Nc2ccc(Br)cc2/C1=C/C(=O)c1ccccc1	3.13
c1ccc(CNc2nc(NCC3CC3)nc3cc(-c4ccccc4)sc23)cc1	2.22
O=C(OCc1ccccc1)N(CCCCN(CCCNCc1ccccc1)C(=O)OCc1ccccc1)CCCNCc1ccccc1	1.24

SMILES	EC50 [µM]
CCOc1ccc2[nH]c3c(N4CCc5ccccc5C4)ncnc3c2c1	4.91
CCOC(=O)c1c(NC(=O)COc2ccccc2OCC)sc2c1CC(C)(C)NC2(C)C	1.2
CN1CCN(Cc2nc3ccccc3c(=O)n2Cc2nc(-c3ccc([N+](=O)[O-])cc3)cs2)CC1	6.16
O=C(Nc1ccc(F)cc1)c1nc(S(=O)(=O)Cc2ccccc2)ncc1Cl	0.344
CCCCC[C@@H](C)N1C[C@@H](COCc2ccccc2)Oc2cc(N3CC[C@@H](N(C)C)C3)ccc2S1(=O)=O	4.57
CC1=C(C)CS(=O)N(S(=O)(=O)c2ccc(Cl)cc2)C1 (centres undefined)	2.88
COc1ccc(-n2sc3ccccc3c2=O)cc1	9
CCCCn1c(=N)n(CC(=O)c2ccc(Br)s2)c2ccccc21	3.99
Cc1cc(N2CCN(c3nc(-c4ccc([N+](=O)[O-])cc4)cs3)CC2)c2ccccc2n1	1.62
COc1cccc(-c2cnc3c(NC(C)=O)cc(-c4ccsc4)cn23)c1	4.98
O=C1CC(Sc2nnnn2-c2ccccc2)C(=O)N1c1cccc(Cl)c1 (centres undefined)	0.289
COc1cccc(N2CCN(c3ncnc4c3[nH]c3ccc(F)cc34)CC2C)c1 (centres undefined)	1.33
COc1ccc(N2C(=O)CC(Sc3nnc(-c4ccccc4)o3)C2=O)cc1 (centres undefined)	0.897
Cc1ccc(-n2nnc3c(=O)oc4ccccc4c32)cc1	2.46
O=C(Cn1sc2ccccc2c1=O)NC12CC3CC(CC(C3)C1)C2	5.13
CCOC(=O)c1cc(-c2csc(Nc3c(C)cc(C)cc3C)n2)on1	3.44
CCCCCCSc1cccc(-c2nc3ccccn3c2NCc2ccccc2)c1	7.71
CCCCC[C@@H](C)N1C[C@@H](COCc2ccccc2)Oc2cc(N3CC[C@H](N(C)C)C3)ccc2S1(=O)=O	9.73
CN1Cc2c(N3CCOCC3)nc3sc(C(=O)c4ccc(Br)cc4)c(N)c3c2CC1(C)C	3.23
CC1COCC(C)N1C1=C(Cl)C(=O)c2ccccc2C1=O (centres undefined)	1.61
O=c1c2ccccc2sn1-c1ccccc1	2.36
O=S(=O)(Nc1cc(Sc2ncn[nH]2)c(O)c2ccccc12)c1ccccc1	2.91
